Measured values reported in PubChem BioAssay AID256 (DTP/NCI, 2004).
Several values for one entry are separate records, joined by “and”; a condition that tells them apart may be missing. Identical values can stand only once. Inconclusive results and toxic doses are left out. How the source made its calls: active means survival T/C of 150% or more; inactive means T/C below 125% in these data.

Tested on: CD2F1 mice, L1210 leukemia ip, survival T/C
Test: NCI In Vivo Anticancer Drug Screen. Data for tumor model L1210 Leukemia (intraperitoneal) in CD2F1 (CDF1) mice
Details: higher = longer survival
Method in brief: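 Mice carrying a transplanted tumor received test compound or vehicle alone. The value is the measurement in the treated group divided by that in the vehicle-treated control group.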

[1] = endpoint: mean survival time, dose: 100.0 mg/kg/injection, schedule: Q04DX003 (ip), vehicle: Klucel (hydroxypropylcellulose) (HPC)
[2] = endpoint: mean survival time, dose: 100.0 mg/kg/injection, schedule: Q01DX009 (ip), vehicle: saline with Tween-80
[3] = endpoint: mean survival time, dose: 200.0 mg/kg/injection, schedule: Q01DX009 (ip), vehicle: saline with Tween-80
[4] = endpoint: mean survival time, dose: 400.0 mg/kg/injection, schedule: Q01DX009 (ip), vehicle: saline with Tween-80
[5] = endpoint: mean survival time, dose: 100.0 mg/kg/injection, schedule: Q04DX003 (ip), vehicle: saline with Tween-80
[6] = endpoint: mean survival time, dose: 200.0 mg/kg/injection, schedule: Q04DX003 (ip), vehicle: saline with Tween-80
[7] = endpoint: mean survival time, dose: 25.0 mg/kg/injection, schedule: Q01DX009 (ip), vehicle: saline with Tween-80
[8] = endpoint: mean survival time, dose: 50.0 mg/kg/injection, schedule: Q01DX009 (ip), vehicle: saline with Tween-80
[9] = endpoint: mean survival time, dose: 400.0 mg/kg/injection, schedule: Q04DX003 (ip), vehicle: saline with Tween-80

Measured: T/C

COc1ccc(NC(=O)Nc2cccc(O)c2)c(Cl)c1
inactive: endpoint: mean survival time, dose: 50.0 mg/kg/injection, schedule: Q01DX009 (ip), vehicle: Klucel (hydroxypropylcellulose) (HPC) 95 % of control | endpoint: mean survival time, dose: 100.0 mg/kg/injection, schedule: Q01DX009 (ip), vehicle: Klucel (hydroxypropylcellulose) (HPC) 98 % of control | [1] 102 % of control | endpoint: mean survival time, dose: 200.0 mg/kg/injection, schedule: Q01DX009 (ip), vehicle: Klucel (hydroxypropylcellulose) (HPC) 95 % of control | endpoint: mean survival time, dose: 200.0 mg/kg/injection, schedule: Q04DX003 (ip), vehicle: Klucel (hydroxypropylcellulose) (HPC) 112 % of control | endpoint: mean survival time, dose: 400.0 mg/kg/injection, schedule: Q04DX003 (ip), vehicle: Klucel (hydroxypropylcellulose) (HPC) 104 % of control

CCOC(=O)C1=NN(c2ccccc2)C(=O)C1
inactive: [2] 94 % of control | [3] 94 % of control | [4] 92 % of control

NC(CSC(c1ccccc1)(c1ccccc1)c1ccccc1)C(=O)O (centres undefined) (tested in a mixture with another compound)
inactive: endpoint: mean survival time, dose: 5.5 mg/kg/injection, schedule: Q04DX003 (ip), vehicle: water 105 % of control | endpoint: mean survival time, dose: 8.3 mg/kg/injection, schedule: Q04DX003 (ip), vehicle: water 102 % of control | endpoint: mean survival time, dose: 12.4 mg/kg/injection, schedule: Q04DX003 (ip), vehicle: water 102 % of control | endpoint: mean survival time, dose: 18.6 mg/kg/injection, schedule: Q04DX003 (ip), vehicle: water 108 % of control | endpoint: mean survival time, dose: 28.0 mg/kg/injection, schedule: Q04DX003 (ip), vehicle: water 103 % of control | endpoint: mean survival time, dose: 42.0 mg/kg/injection, schedule: Q04DX003 (ip), vehicle: water 103 % of control | endpoint: mean survival time, dose: 63.0 mg/kg/injection, schedule: Q04DX003 (ip), vehicle: water 90 % of control

CC(C)(C)c1ccc(C(=O)C2CC2)cc1
inactive: [5] 98 % of control | [6] 96 % of control

ClC1=C(Cl)C2(Cl)C=CC1(Cl)C2(Cl)Cl
inactive: [7] 97 % of control | [8] 90 % of control | [5] 105 % of control

O=C1CSC1=C(c1ccccc1)c1ccccc1
inactive: endpoint: mean survival time, dose: 12.5 mg/kg/injection, schedule: Q04DX002 (ip), vehicle: saline with Tween-80 94 % of control | endpoint: mean survival time, dose: 25.0 mg/kg/injection, schedule: Q04DX002 (ip), vehicle: saline with Tween-80 94 % of control | endpoint: mean survival time, dose: 50.0 mg/kg/injection, schedule: Q04DX002 (ip), vehicle: saline with Tween-80 94 % of control

O=C(O)CCC1C2C=CC(C2)C1C(=O)O (centres undefined)
inactive: [5] 96 % of control | [6] 96 % of control | [9] 98 % of control

COc1ccc(CNCCO)cc1OC
inactive: endpoint: median survival time, dose: 25.0 mg/kg/injection, schedule: Q04DX003 (ip), vehicle: saline 90 % of control | endpoint: median survival time, dose: 50.0 mg/kg/injection, schedule: Q04DX003 (ip), vehicle: saline 90 % of control | endpoint: median survival time, dose: 100.0 mg/kg/injection, schedule: Q04DX003 (ip), vehicle: saline 90 % of control | endpoint: median survival time, dose: 200.0 mg/kg/injection, schedule: Q04DX003 (ip), vehicle: saline 100 % of control

OC1C2COC(O2)C(O)C1O (centres undefined) (tested in a mixture with another compound)
inactive: endpoint: mean survival time, dose: 100.0 mg/kg/injection, schedule: Q01DX009 (ip), vehicle: saline 93 % of control | endpoint: mean survival time, dose: 200.0 mg/kg/injection, schedule: Q01DX009 (ip), vehicle: saline 91 % of control | endpoint: mean survival time, dose: 400.0 mg/kg/injection, schedule: Q01DX009 (ip), vehicle: saline 91 % of control

O=C(Nc1ccc2ccccc2c1)c1ccc(Cl)cc1Cl
inactive: [5] 96 % of control | [6] 98 % of control | [9] 95 % of control

COc1ccc(C(=O)c2ncccc2C)cc1OC
inactive: endpoint: mean survival time, dose: 12.5 mg/kg/injection, schedule: Q01DX009 (ip), vehicle: water 94 % of control | endpoint: mean survival time, dose: 25.0 mg/kg/injection, schedule: Q01DX009 (ip), vehicle: water 95 % of control | endpoint: mean survival time, dose: 50.0 mg/kg/injection, schedule: Q01DX009 (ip), vehicle: water 94 % of control | endpoint: mean survival time, dose: 100.0 mg/kg/injection, schedule: Q01DX009 (ip), vehicle: water 94 % of control | endpoint: mean survival time, dose: 200.0 mg/kg/injection, schedule: Q01DX009 (ip), vehicle: water 88 % of control

O=C1C=C(S(=O)(=O)O)c2ccccc2C1=O
inactive: endpoint: mean survival time, dose: 100.0 mg/kg/injection, schedule: Q04DX003 (ip), vehicle: saline 105 % of control | endpoint: mean survival time, dose: 200.0 mg/kg/injection, schedule: Q04DX003 (ip), vehicle: saline 103 % of control | endpoint: mean survival time, dose: 400.0 mg/kg/injection, schedule: Q04DX003 (ip), vehicle: saline 108 % of control

O=C(N/N=C/c1ccc([N+](=O)[O-])o1)c1ccccc1N=Cc1ccc([N+](=O)[O-])o1
inactive: [2] 96 % of control | [3] 98 % of control | [4] 104 % of control

c1ccc(NSc2ccccc2)cc1
inactive: [8] 101 % of control | [2] 101 % of control | [3] 96 % of control

COC1C=CC=CC=C1
inactive: endpoint: mean survival time, dose: 15.0 mg/kg/injection, schedule: Q04DX003 (ip), vehicle: saline sonified 100 % of control | endpoint: mean survival time, dose: 30.0 mg/kg/injection, schedule: Q04DX003 (ip), vehicle: saline sonified 94 % of control | endpoint: mean survival time, dose: 60.0 mg/kg/injection, schedule: Q04DX003 (ip), vehicle: saline sonified 100 % of control

Cc1cc(C)cc(C(C)(C)C)c1
inactive: [2] 96 % of control | [3] 102 % of control

Nc1cc(N)c([N+](=O)[O-])cc1[N+](=O)[O-]
inactive: [5] 100 % of control | [6] 91 % of control | [9] 108 % of control

OC1CC2c3ccccc3C1c1cccc[n+]12 (centres undefined)
inactive: [1] 94 % of control

O=C(O)Cc1ccc(Cl)cc1
inactive: endpoint: mean survival time, dose: 75.0 mg/kg/injection, schedule: Q01DX009 (ip), vehicle: saline with Tween-80 96 % of control | endpoint: mean survival time, dose: 150.0 mg/kg/injection, schedule: Q01DX009 (ip), vehicle: saline with Tween-80 102 % of control | endpoint: mean survival time, dose: 300.0 mg/kg/injection, schedule: Q01DX009 (ip), vehicle: saline with Tween-80 88 % of control

N/C(=N\N=C\c1c(F)c(F)c(F)c(F)c1F)N[N+](=O)[O-]
inactive: [5] 106 % of control | [6] 98 % of control | [9] 96 % of control

CC1=C2CCOC2=Nc2ccccc2O1
inactive: endpoint: mean survival time, dose: 75.0 mg/kg/injection, schedule: Q01DX001 (ip), vehicle: saline 109 % of control | endpoint: mean survival time, dose: 150.0 mg/kg/injection, schedule: Q01DX001 (ip), vehicle: saline 104 % of control | endpoint: mean survival time, dose: 300.0 mg/kg/injection, schedule: Q01DX001 (ip), vehicle: saline 97 % of control

CCOC(=O)NC(S(=O)(=O)O)S(=O)(=O)O.[Tl]
inactive: endpoint: mean survival time, dose: 6.25 mg/kg/injection, schedule: Q01DX001 (ip), vehicle: saline with Tween-80 98 % of control | endpoint: mean survival time, dose: 12.5 mg/kg/injection, schedule: Q01DX001 (ip), vehicle: saline with Tween-80 90 % of control | endpoint: mean survival time, dose: 25.0 mg/kg/injection, schedule: Q01DX001 (ip), vehicle: saline with Tween-80 98 % of control

CC(C)(CN=Cc1ccccc1[O-])N=Cc1ccccc1[O-].[O]=[V]
inactive: endpoint: mean survival time, dose: 12.5 mg/kg/injection, schedule: Q01DX009 (ip), vehicle: saline with Tween-80 89 % of control | [7] 96 % of control | [8] 91 % of control | [5] 100 % of control | [6] 88 % of control

C=CCOc1cc2c(cc1C(C)c1ccc(OC)cc1)OCO2 (centres undefined)
inactive: endpoint: median survival time, dose: 25.0 mg/kg/injection, schedule: Q01DX009 (ip), vehicle: Klucel (hydroxypropylcellulose) (HPC) 100 % of control and 103 % of control | endpoint: median survival time, dose: 50.0 mg/kg/injection, schedule: Q01DX005 (ip), vehicle: Klucel (hydroxypropylcellulose) (HPC) 94 % of control | endpoint: median survival time, dose: 50.0 mg/kg/injection, schedule: Q01DX009 (ip), vehicle: Klucel (hydroxypropylcellulose) (HPC) 120 % of control and 101 % of control and 104 % of control | endpoint: median survival time, dose: 50.0 mg/kg/injection, schedule: Q01DX009 (ip), vehicle: saline with Tween-80 105 % of control | endpoint: median survival time, dose: 100.0 mg/kg/injection, schedule: Q01DX005 (ip), vehicle: Klucel (hydroxypropylcellulose) (HPC) 103 % of control | endpoint: median survival time, dose: 100.0 mg/kg/injection, schedule: Q01DX009 (ip), vehicle: Klucel (hydroxypropylcellulose) (HPC) 105 % of control and 110 % of control | endpoint: median survival time, dose: 100.0 mg/kg/injection, schedule: Q01DX009 (ip), vehicle: saline with Tween-80 107 % of control | endpoint: median survival time, dose: 200.0 mg/kg/injection, schedule: Q01DX005 (ip), vehicle: Klucel (hydroxypropylcellulose) (HPC) 108 % of control | endpoint: median survival time, dose: 400.0 mg/kg/injection, schedule: Q01DX005 (ip), vehicle: Klucel (hydroxypropylcellulose) (HPC) 118 % of control | endpoint: median survival time, dose: 400.0 mg/kg/injection, schedule: Q01DX009 (ip), vehicle: saline with Tween-80 124 % of control | endpoint: median survival time, dose: 800.0 mg/kg/injection, schedule: Q01DX005 (ip), vehicle: Klucel (hydroxypropylcellulose) (HPC) 95 % of control | endpoint: median survival time, dose: 800.0 mg/kg/injection, schedule: Q01DX009 (ip), vehicle: saline with Tween-80 98 % of control
